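Interpolation was linear, between the two tested concentrations surrounding the appropriate level; five concentrations were tested over 48 hours in 96-well plates. GI50 = concentration required for 50% inhibition of growth.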 Activity calls are given as the source filed them. Cut-off read from the data, not from the text of the source: active = GI50 up to about 1.1 µM and inactive = higher.
Columns and labels:
Test in all cases: inhibition of tumour cell growth, NCI panel, 48 h
DLD-1 = tested on: DLD-1
XF498 = tested on: XF498
HOP-18 = tested on: HOP-18
KM-20L2 = tested on: KM-20L2
SNB-78 = tested on: SNB-78
M19-MEL = tested on: M19-MEL
DMS-114 = tested on: DMS-114
DMS-273 = tested on: DMS-273
RXF 631 = tested on: RXF 631

SMILES: C=C1Cc2cc(OC)c(OC)c(OC)c2-c2ccc(SC)c(=O)cc21
- GI50 (DLD-1): < 0.01 µM (active)
- GI50 (XF498): < 0.01 µM (active)
- GI50 (HOP-18): 4.92 µM (inactive)
- GI50 (KM-20L2): < 0.01 µM (active)
- GI50 (SNB-78): < 0.01 µM (active)
- GI50 (M19-MEL): < 0.01 µM (active)
- GI50 (DMS-114): < 0.01 µM (active)
- GI50 (DMS-273): < 0.01 µM (active)

SMILES: CC1=C(/C(C)=N/NS(=O)(=O)c2ccc(C)cc2)Sc2ccccc2N1
- GI50 (HOP-18): 72.1 µM (inactive)
- GI50 (KM-20L2): > 100 µM (inactive)
- GI50 (SNB-78): > 100 µM (inactive)
- GI50 (M19-MEL): 43.7 µM (inactive)
- GI50 (RXF 631): > 100 µM (inactive)
- GI50 (DMS-114): 43.4 µM (inactive)
- GI50 (DMS-273): 78.3 µM (inactive)

SMILES: CC(C)(C)C(=O)O[C@@H]1COC2C(O)COC21 (stereo not given in full)
- GI50 (DLD-1): > 100 µM (inactive)
- GI50 (XF498): > 100 µM (inactive)
- GI50 (HOP-18): > 100 µM (inactive)
- GI50 (SNB-78): > 100 µM (inactive)
- GI50 (M19-MEL): > 100 µM (inactive)
- GI50 (RXF 631): > 100 µM (inactive)
- GI50 (DMS-114): > 100 µM (inactive)
- GI50 (DMS-273): > 100 µM (inactive)

SMILES: C/C(=N\N(c1ccccc1)c1ccccc1)c1c(O)cc(C)oc1=O
- GI50 (DLD-1): 76.2 µM (inactive)
- GI50 (HOP-18): > 100 µM (inactive)
- GI50 (KM-20L2): > 100 µM (inactive)
- GI50 (SNB-78): > 100 µM (inactive)
- GI50 (M19-MEL): 81.7 µM (inactive)

SMILES: CC(C)Cc1ccc(C(C)/C=C2\CCC(CN3CCCCC3)C2=O)cc1 (stereo not given)
- GI50 (DLD-1): 2.33 µM (inactive)
- GI50 (XF498): 6.78 µM (inactive)
- GI50 (HOP-18): 16.6 µM (inactive)
- GI50 (KM-20L2): 10.4 µM (inactive)
- GI50 (SNB-78): 5.74 µM (inactive)
- GI50 (M19-MEL): 2.54 µM (inactive)
- GI50 (DMS-114): 2.22 µM (inactive)
- GI50 (DMS-273): 2.86 µM (inactive)

SMILES: O=[N+]([O-])c1cccc(C2SCc3nc4ccccc4n32)c1 (stereo not given)
- GI50 (DLD-1): 62.8 µM (inactive)
- GI50 (XF498): > 10 µM (inactive)
- GI50 (HOP-18): > 100 µM (inactive)
- GI50 (KM-20L2): > 100 µM (inactive)
- GI50 (SNB-78): > 100 µM (inactive)
- GI50 (M19-MEL): > 100 µM (inactive)
- GI50 (DMS-114): 53.5 µM (inactive)
- GI50 (DMS-273): 85.7 µM (inactive)

SMILES: NC(=O)NC1C(C(N)=O)N(Cc2ccccc2)C(=O)N1Cc1ccccc1 (stereo not given)
- GI50 (DLD-1): > 100 µM (inactive)
- GI50 (XF498): > 100 µM (inactive)
- GI50 (HOP-18): > 100 µM (inactive)
- GI50 (KM-20L2): 46 µM (inactive)
- GI50 (SNB-78): > 100 µM (inactive)
- GI50 (M19-MEL): > 100 µM (inactive)
- GI50 (RXF 631): > 100 µM (inactive)
- GI50 (DMS-114): > 100 µM (inactive)
- GI50 (DMS-273): > 100 µM (inactive)

SMILES: Cc1cccc(C(=O)O)c1C(=O)c1cccc2ccccc12
- GI50 (DLD-1): > 100 µM (inactive)
- GI50 (HOP-18): > 100 µM (inactive)
- GI50 (KM-20L2): 33.5 µM (inactive)
- GI50 (SNB-78): > 100 µM (inactive)
- GI50 (M19-MEL): > 100 µM (inactive)
- GI50 (DMS-114): > 100 µM (inactive)
- GI50 (DMS-273): > 100 µM (inactive)

SMILES: N#CC1C2CCC3(CC2CCN1C(=O)c1ccccc1)OCCO3 (stereo not given)
- GI50 (DLD-1): > 100 µM (inactive)
- GI50 (XF498): > 100 µM (inactive)
- GI50 (HOP-18): > 100 µM (inactive)
- GI50 (KM-20L2): > 100 µM (inactive)
- GI50 (SNB-78): > 100 µM (inactive)
- GI50 (M19-MEL): > 100 µM (inactive)
- GI50 (DMS-114): > 100 µM (inactive)
- GI50 (DMS-273): > 100 µM (inactive)

SMILES: O=C(CN(Cc1ccccc1)Cc1ccccc1)N1CCc2c([nH]c3ccccc23)C1c1cccnc1 (stereo not given)
- GI50 (DLD-1): 6.4 µM (inactive)
- GI50 (XF498): 13.9 µM (inactive)
- GI50 (HOP-18): 46.5 µM (inactive)
- GI50 (KM-20L2): 6.92 µM (inactive)
- GI50 (SNB-78): 15.8 µM (inactive)
- GI50 (M19-MEL): 5.98 µM (inactive)
- GI50 (DMS-114): 4.35 µM (inactive)
- GI50 (DMS-273): 4.74 µM (inactive)

SMILES: CC(C)C(/C=C/c1ccccc1)=N\NC(=O)N/N=C(/C=C/c1ccccc1)C(C)C
- GI50 (DLD-1): 34.8 µM (inactive)
- GI50 (XF498): 26.4 µM (inactive)
- GI50 (KM-20L2): 22.5 µM (inactive)
- GI50 (SNB-78): 28.1 µM (inactive)
- GI50 (M19-MEL): 21 µM (inactive)
- GI50 (DMS-114): 13 µM (inactive)
- GI50 (DMS-273): 19.8 µM (inactive)

SMILES: CCCCCCCCCCCC(=O)OCC1OC(n2cc(F)c(=O)[nH]c2=O)C(NC(=O)OCc2ccccc2)C(O)C1O (stereo not given)
- GI50 (KM-20L2): 21.4 µM (inactive)
- GI50 (SNB-78): 28.9 µM (inactive)
- GI50 (M19-MEL): 20 µM (inactive)
- GI50 (DMS-273): 19 µM (inactive)

SMILES: Cc1ccc(S(=O)(=O)N[C@H](C(=O)O)c2ccccc2)cc1
- GI50 (DLD-1): > 100 µM (inactive)
- GI50 (XF498): > 100 µM (inactive)
- GI50 (HOP-18): > 100 µM (inactive)
- GI50 (KM-20L2): > 100 µM (inactive)
- GI50 (M19-MEL): > 100 µM (inactive)
- GI50 (RXF 631): > 100 µM (inactive)
- GI50 (DMS-273): > 100 µM (inactive)

SMILES: N#CCCc1nc2ccc(Br)cc2c(=O)n1CCO
- GI50 (DLD-1): > 100 µM (inactive)
- GI50 (XF498): 95.7 µM (inactive)
- GI50 (SNB-78): > 100 µM (inactive)
- GI50 (M19-MEL): > 100 µM (inactive)
- GI50 (RXF 631): > 100 µM (inactive)
- GI50 (DMS-114): > 100 µM (inactive)

SMILES: Cc1cc(C(=O)NCCN(C)C)c2nc3ccccc3nc2c1
- GI50 (DLD-1): 4.08 µM (inactive)
- GI50 (HOP-18): > 35.1 µM (inactive)
- GI50 (KM-20L2): 3.1 µM (inactive)
- GI50 (SNB-78): 12.8 µM (inactive)
- GI50 (M19-MEL): 3.13 µM (inactive)
- GI50 (DMS-114): 3.19 µM (inactive)
- GI50 (DMS-273): 3.87 µM (inactive)

SMILES: N/N=C1\C(=O)N(Cc2ccccc2)C(=O)C1C(=O)NCc1ccccc1 (stereo not given)
- GI50 (DLD-1): > 100 µM (inactive)
- GI50 (HOP-18): > 100 µM (inactive)
- GI50 (KM-20L2): > 100 µM (inactive)
- GI50 (SNB-78): > 100 µM (inactive)
- GI50 (M19-MEL): > 100 µM (inactive)
- GI50 (DMS-114): > 100 µM (inactive)

SMILES: COCC(=O)CP(=O)(OC)OC
- GI50 (XF498): > 100 µM (inactive)
- GI50 (SNB-78): > 100 µM (inactive)
- GI50 (M19-MEL): > 100 µM (inactive)
- GI50 (DMS-114): > 100 µM (inactive)
- GI50 (DMS-273): > 100 µM (inactive)

SMILES: COc1cc2c(cc1OC)[C@]1(O)C(=O)c3ccc4c(c3O[C@@H]1CO2)C[C@H](C(C)(C)O)O4
- GI50 (DLD-1): > 100 µM (inactive)
- GI50 (XF498): > 100 µM (inactive)
- GI50 (KM-20L2): > 100 µM (inactive)
- GI50 (SNB-78): > 100 µM (inactive)
- GI50 (M19-MEL): > 100 µM (inactive)
- GI50 (DMS-114): 3.61 µM (inactive)
- GI50 (DMS-273): > 100 µM (inactive)

Source: ChEMBL document CHEMBL1201862, “PubChem BioAssay data set” (2004)
